# Measured values as given in patent US10947201B2, “Certain chemical entities, compositions, and methods” (NEUPHARMA, INC., priority 2015, dated 2021).
# Tests used:
# EGFR (ErbB1) = target: T1, EGFR (ErbB1) (Homo sapiens, UniProt P00533); test: Z'-LYTE kinase inhibition assay (Invitrogen), EGFR; assay type: biochemical; conditions: for inhibition at 0.041 µM: compound at 41 nM, 10 μM of ATP; for inhibition at 0.1 µM: compound at 100 nM, [ATP] = Km
# T1 construct: purchased Invitrogen
# Method: (§1) Inhibitory activities of compounds against BTK, EGFR and EGFR mutants (EGFR L858R/T790M) were measured by Invitrogen using Z′-LYTE® Method as briefly described in the following.
# (§2) Test Compounds are screened in 1% DMSO (final) in the well. For 10 point titrations, 3-fold serial dilutions are conducted from the starting concentration. All ATP Solutions are diluted to a 4× working concentration in Kinase Buffer (50 mM HEPES pH 7.5, 0.01% BRIJ-35, 10 mM MgCl2, 1 mM EGTA). Peptide/Kinase Mixtures are diluted to a 2× working concentration in the appropriate Kinase Buffers as described below.
# (i) Peptide/Kinase Mixtures for measurement of EGFR (ErbB1):
# The 2×EGFR (ErbB1)/Tyr 04 mixture is prepared in 50 mM HEPES pH 7.5, 0.01% BRIJ-35, 10 mM MgCl2, 4 mM MnCl2, 1 mM EGTA, 2 mMDTT. The final 10 μL Kinase Reaction consists of 1.1-5.25 ng EGFR (ErbB1) and 2 μM Tyr 04 in 50 mM HEPES pH 7.5, 0.01% BRIJ-35, 10 mM MgCl2, 2 mM MnCl2, 1 mM EGTA, 1 mM DTT. After the 1 hour Kinase Reaction incubation, 5 μL of a 1:64 dilution of DevelopmentReagent B is added.
# (§3) Reaction starts by 30-second shaking of mixture consisting of 2.5 μL 4× test compound, 5 μL 2× kinase reaction mixture and 2.5 μL 4×ATP Solution on Bar-coded Corning, low volume NBS, black 384-well plate (Corning Cat. #3676). Then the mixture is incubated for 60-minute at room temperature for the kinase reaction, followed by addition of 5 μL of a 1:1024 dilution of development reagent A and 30-second plate shake. The mixture is then incubated for another 60-minute at room temperature for development reaction. Finally fluorescence is read by plate reader. […] The scale utilized in Tables 2 and 3 is as follows: ++ more than 50% inhibition and + less than 50% inhibition.
# (§4) To determine IC50 of a compound against EGFR or EGFR mutants, a series of concentrations of the compound were tested for the inhibition. IC50 was calculated by plotting the concentration of compound vs the percentage of inhibition in treated wells using GraphPad Prism 5. […] The scale utilized in Table 4 is as follows: ++ less than 100 nM and + greater than 100 nM.
# EGFR (ErbB1) T790M L858R = target: T2, EGFR (ErbB1) T790M L858R (Homo sapiens, UniProt P00533, L858R/T790M); test: Z'-LYTE kinase inhibition assay (Invitrogen), EGFR L858R/T790M; assay type: biochemical; conditions: for inhibition at 0.0137 µM: compound at 13.7 nM, 10 μM of ATP; for inhibition at 0.1 µM: compound at 100 nM, [ATP] = Km
# T2 construct: purchased Invitrogen
# T2 sequence (P00533 25-1210 T790M/L858R): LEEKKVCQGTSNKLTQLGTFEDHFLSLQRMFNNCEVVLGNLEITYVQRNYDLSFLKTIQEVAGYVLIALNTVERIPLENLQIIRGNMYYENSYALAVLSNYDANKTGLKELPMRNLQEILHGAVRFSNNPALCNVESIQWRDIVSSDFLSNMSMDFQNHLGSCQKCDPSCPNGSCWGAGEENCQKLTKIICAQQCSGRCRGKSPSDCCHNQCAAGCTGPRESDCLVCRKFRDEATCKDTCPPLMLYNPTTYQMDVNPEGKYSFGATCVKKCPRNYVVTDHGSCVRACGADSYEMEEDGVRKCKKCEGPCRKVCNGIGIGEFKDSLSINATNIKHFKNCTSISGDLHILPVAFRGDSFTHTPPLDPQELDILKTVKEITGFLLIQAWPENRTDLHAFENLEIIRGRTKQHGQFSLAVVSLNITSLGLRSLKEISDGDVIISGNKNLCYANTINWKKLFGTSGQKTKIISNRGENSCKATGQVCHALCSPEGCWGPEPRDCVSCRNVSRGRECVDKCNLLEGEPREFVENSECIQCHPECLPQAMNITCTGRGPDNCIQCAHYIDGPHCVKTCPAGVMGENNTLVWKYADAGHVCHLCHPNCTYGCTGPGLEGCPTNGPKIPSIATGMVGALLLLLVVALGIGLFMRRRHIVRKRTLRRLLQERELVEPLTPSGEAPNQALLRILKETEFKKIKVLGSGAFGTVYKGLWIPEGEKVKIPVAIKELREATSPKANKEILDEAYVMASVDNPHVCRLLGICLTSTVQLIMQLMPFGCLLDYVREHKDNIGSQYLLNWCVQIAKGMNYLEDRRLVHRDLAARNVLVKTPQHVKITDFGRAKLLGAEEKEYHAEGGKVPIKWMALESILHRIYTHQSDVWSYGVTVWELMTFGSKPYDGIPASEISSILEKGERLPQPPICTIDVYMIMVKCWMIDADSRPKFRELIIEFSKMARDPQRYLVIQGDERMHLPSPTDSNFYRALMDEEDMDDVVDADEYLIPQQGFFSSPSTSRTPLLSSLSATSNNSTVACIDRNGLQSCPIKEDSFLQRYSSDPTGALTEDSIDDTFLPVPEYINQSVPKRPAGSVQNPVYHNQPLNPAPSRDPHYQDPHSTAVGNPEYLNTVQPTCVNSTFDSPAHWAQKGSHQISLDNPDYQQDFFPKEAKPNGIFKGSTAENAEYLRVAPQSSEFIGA
# Method: as §1, §2
# (iv) Peptide/Kinase Mixtures for measurement of EGFR (ErbB1) T790M L858R:
# The 2×EGFR (ErbB1) T790M L858R/Tyr 04 mixture is prepared in 50 mM HEPES pH 6.5, 0.01% BRIJ-35, 10 mM MgCl2, 1 mM EGTA, 0.02% NaN3. The final 10 μL Kinase Reaction consists of 0.38-4.22 ng EGFR (ErbB1) T790M L858R and 2 μM Tyr 04 in 50 mM HEPES pH 7.0, 0.01% BRIJ-35, 10 mM MgCl2, 1 mM EGTA, 0.01% NaN3. After the 1 hour Kinase Reaction incubation, 5 μL of a 1:64 dilution of Development Reagent B is added.
# as §3, §4
# BTK = target: T3, BTK (Homo sapiens, UniProt Q06187); test: Z'-LYTE kinase inhibition assay (Invitrogen), BTK; assay type: biochemical; conditions: for inhibition at 0.041 µM: compound at 41 nM, 10 μM of ATP; for inhibition at 0.1 µM: compound at 100 nM, [ATP] = Km
# T3 construct: purchased Invitrogen
# T3 sequence (Q06187 whole entry): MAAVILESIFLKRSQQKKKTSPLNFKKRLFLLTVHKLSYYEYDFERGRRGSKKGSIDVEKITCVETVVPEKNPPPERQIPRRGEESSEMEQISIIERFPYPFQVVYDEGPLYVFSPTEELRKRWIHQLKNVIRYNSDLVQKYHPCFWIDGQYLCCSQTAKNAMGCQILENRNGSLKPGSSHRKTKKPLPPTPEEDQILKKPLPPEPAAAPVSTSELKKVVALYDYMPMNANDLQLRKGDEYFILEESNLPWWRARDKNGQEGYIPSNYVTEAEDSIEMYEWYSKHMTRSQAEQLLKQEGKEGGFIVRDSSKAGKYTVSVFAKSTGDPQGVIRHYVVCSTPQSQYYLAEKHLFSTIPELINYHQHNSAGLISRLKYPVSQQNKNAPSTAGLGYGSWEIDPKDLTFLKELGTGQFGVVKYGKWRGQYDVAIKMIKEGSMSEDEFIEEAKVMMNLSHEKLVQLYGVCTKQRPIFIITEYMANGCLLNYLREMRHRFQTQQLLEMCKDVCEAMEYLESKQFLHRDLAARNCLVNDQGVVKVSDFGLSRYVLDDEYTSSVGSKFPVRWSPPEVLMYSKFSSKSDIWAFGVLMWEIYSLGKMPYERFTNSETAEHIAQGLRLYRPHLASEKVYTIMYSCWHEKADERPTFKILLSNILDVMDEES
# Method: as §1, §2
# (v) Peptide/Kinase Mixtures for measurement of BTK:
# The 2×BTK/Tyr 01 mixture is prepared in 50 mM HEPES pH 7.5, 0.01% BRIJ-35, 10 mM MgCl2, 1 mM EGTA. The final 10 μL Kinase Reaction consists of 1.04-10.4 ng BTK and 2 μM Tyr 01 in 50 mM HEPES pH 7.5, 0.01% BRIJ-35, 10 mM MgCl2, 1 mM EGTA. After the 1 hour Kinase Reaction incubation, 5 μL of a 1:256 dilution of Development Reagent B is added.
# as §3, §4
# A549 cells = test: MTT cell growth inhibition assay, A549; assay type: cell-based; conditions: Homo sapiens, A549 cells (KRAS mutation), 72 h
# Method: (§5) Inhibition of cell growth by compounds was measured using MTT assay (Mosmann, T., Journal of Immunological Methods, 1983, 65, 55-63). Tumor cell lines were purchased from ATCC (American Type Culture Collection, Manassas, Va.). All cell lines were maintained in RPMI 1640 (Hyclone) supplemented with 10% fetal bovine serum (FBS, Hyclone), glutamine (2 mM, Hyclone), and antibiotics (penicillin 100 U/mL and streptomycin 50 μg/mL) at 37° C. in a humidified atmosphere of 5% CO2 in air. Taxol (as a positive control, Sigma) and compounds were dissolved in DMSO (Sigma), and the final concentration of DMSO in the medium was 1%. Tumor cells were plated in 96-well plates at densities of about 4000 cells/well of a 96-well plate and allowed to adhere/grow for 24 h. They were then treated with various concentrations of drug for 72 h. 3-(4,5-Dimethylthiazol-2-yl)-2,5-diphenyltetrazolium bromide (MTT, Sigma) was used to determine the number of viable cells at the time of compound addition and the number of cells remaining after 72 h compound exposure. The number of cells remaining after 72 h was compared to the number of viable cells at the time of compound addition by measuring the absorbance at 570 nm, allowing for the calculation of growth inhibition.
# (§6) All concentrations of compounds were tested in triplicate and controls were averaged over 4 wells. IC50 was calculated by plotting the concentration of compound vs the percentage of inhibition in treated wells using GraphPad Prism 5.
# (§7) Tables 5 show IC50 values of several compounds of the invention in A549, A431, H1299, and H1975 human cancer cells. A549 cells have a mutation on KRAS, H3255 cells have L858R mutation, and H1975 cells have double EGFR mutations (L858R/T790M). The scale utilized in Table 5 is as follows: +++ less than 100 nM; ++ between 100 nM and 500 nM; and + greater than 500 nM.
# H1975 cells = test: MTT cell growth inhibition assay, H1975; assay type: cell-based; conditions: Homo sapiens, NCI-H1975, H1975 cells (EGFR L858R/T790M), 72 h
# Method: as §5, §6, §7
# T1 sequence (P00533 25-1210): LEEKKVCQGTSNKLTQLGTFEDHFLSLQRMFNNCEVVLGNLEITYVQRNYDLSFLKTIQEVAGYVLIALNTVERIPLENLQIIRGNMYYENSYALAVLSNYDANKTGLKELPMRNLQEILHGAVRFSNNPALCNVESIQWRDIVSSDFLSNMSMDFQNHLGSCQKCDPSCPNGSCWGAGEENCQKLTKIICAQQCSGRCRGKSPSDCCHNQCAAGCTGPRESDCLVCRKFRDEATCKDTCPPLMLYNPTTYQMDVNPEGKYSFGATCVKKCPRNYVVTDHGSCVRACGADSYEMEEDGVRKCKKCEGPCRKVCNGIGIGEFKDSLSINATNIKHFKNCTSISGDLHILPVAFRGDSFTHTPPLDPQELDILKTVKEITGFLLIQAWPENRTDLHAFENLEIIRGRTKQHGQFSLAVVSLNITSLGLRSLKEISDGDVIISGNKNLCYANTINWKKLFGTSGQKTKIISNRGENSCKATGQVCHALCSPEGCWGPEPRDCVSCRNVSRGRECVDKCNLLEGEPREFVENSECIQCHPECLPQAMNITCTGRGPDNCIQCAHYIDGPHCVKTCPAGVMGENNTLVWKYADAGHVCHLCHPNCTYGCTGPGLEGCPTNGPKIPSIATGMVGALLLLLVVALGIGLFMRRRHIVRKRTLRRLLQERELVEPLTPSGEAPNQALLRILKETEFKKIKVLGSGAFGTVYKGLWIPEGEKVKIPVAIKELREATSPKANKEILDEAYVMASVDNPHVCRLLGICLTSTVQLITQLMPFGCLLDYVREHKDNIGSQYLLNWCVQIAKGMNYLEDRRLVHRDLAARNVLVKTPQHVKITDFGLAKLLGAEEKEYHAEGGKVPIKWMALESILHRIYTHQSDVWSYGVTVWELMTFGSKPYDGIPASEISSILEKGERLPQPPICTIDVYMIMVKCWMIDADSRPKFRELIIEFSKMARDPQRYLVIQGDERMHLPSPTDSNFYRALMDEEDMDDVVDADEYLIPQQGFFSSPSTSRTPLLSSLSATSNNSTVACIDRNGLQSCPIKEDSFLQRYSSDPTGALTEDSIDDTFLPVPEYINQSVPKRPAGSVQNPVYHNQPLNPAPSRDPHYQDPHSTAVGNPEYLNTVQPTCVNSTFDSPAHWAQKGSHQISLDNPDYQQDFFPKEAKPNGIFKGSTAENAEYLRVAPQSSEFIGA
inhibition at 0.041 µM (EGFR (ErbB1)) [%],inhibition at 0.1 µM (EGFR (ErbB1)) [%],inhibition at 0.0137 µM (EGFR (ErbB1) T790M L858R) [%],inhibition at 0.1 µM (EGFR (ErbB1) T790M L858R) [%],inhibition at 0.041 µM (BTK) [%],inhibition at 0.1 µM (BTK) [%],IC50 (A549 cells) [nM],IC50 (H1975 cells) [nM],Compound
< 50,< 50,> 50,< 50,> 50,> 50,100 to 500,100 to 500,"C=CC(=O)Nc1cc(Nc2ncc3cccc(-c4ccccc4Cl)c3n2)ccc1N(C)CCN(C)C [Example C008, N-(5-((8-(2-chlorophenyl)quinazolin-2-yl)amino)-2-((2-(dimethylamino)ethyl)(methyl)amino)phenyl) acrylamide]"
< 50,< 50,> 50,< 50,> 50,> 50,–,< 100,"C=CC(=O)Nc1cc(Nc2ncc3cccc(-c4ccccc4F)c3n2)ccc1N(C)CCN(C)C [Example C009, N-(2-((2-(dimethylamino)ethyl)(methyl)amino)-5-((8-(2-fluorophenyl)quinazolin-2-yl)amino)phenyl)acrylamide]"
< 50,< 50,< 50,< 50,–,> 50,–,< 100,"C=CC(=O)Nc1cc(Nc2ncc3cccc(-c4cccc(Cl)c4)c3n2)ccc1N1CCN(C)CC1 [Example C011, N-(5-((8-(3-chlorophenyl)quinazolin-2-yl)amino)-2-(4-methylpiperazin-1-yl)phenyl)acrylamide]"
–,> 50,–,> 50,–,> 50,100 to 500,< 100,"C=CC(=O)Nc1cc(Nc2ncc3cccc(-c4cccc(F)c4)c3n2)c(OC)cc1OC1CCN(C)C1 (stereo not shown) [Example C019, N-(5-((8-(3-fluorophenyl)quinazolin-2-yl)amino)-4-methoxy-2-((1-methylpyrrolidin-3-yl)oxy)phenyl)acrylamide]"
–,< 50,–,> 50,–,> 50,–,< 100,C=CC(=O)Nc1cc(Nc2ncc3cccc(-c4cncc(Cl)c4)c3n2)ccc1N(C)CCN(C)C [Example C021]
< 50,< 50,< 50,< 50,> 50,> 50,–,< 100,"C=CC(=O)Nc1cc(Nc2ncc3cccc(-c4ccncc4)c3n2)ccc1N(C)CCN(C)C [Example C007, N-(2-((2-(dimethylamino)ethyl)(methyl)amino)-5-((8-(pyridin-4-yl)quinazolin-2-yl)amino)phenyl)acrylamide]"
< 50,< 50,> 50,< 50,–,> 50,–,< 100,"C=CC(=O)Nc1cc(Nc2ncc3cccc(-c4cccc(Cl)c4)c3n2)ccc1OCCN(C)C [Example C012, N-(5-((8-(3-chlorophenyl)quinazolin-2-yl)amino)-2-(2-(dimethylamino)ethoxy)phenyl)acrylamide]"
< 50,< 50,< 50,< 50,–,< 50,–,< 100,"C=CC(=O)Nc1cc(Nc2ncc3cccc(-c4cccc(Cl)c4)c3n2)ccc1N1CCOCC1 [Example C016, N-(5-((8-(3-chlorophenyl)quinazolin-2-yl)amino)-2-morpholinophenyl)acrylamide]"
< 50,< 50,< 50,< 50,–,> 50,–,< 100,"C=CC(=O)Nc1cc(Nc2ncc3cccc(-c4ccccc4Cl)c3n2)ccc1OCCN(C)C [Example C014, N-(5-((8-(2-chlorophenyl)quinazolin-2-yl)amino)-2-(2-(dimethylamino)ethoxy)phenyl)acrylamide]"
–,–,< 50,–,–,–,–,< 100,"C=CC(=O)Nc1cc(Nc2ncc3cccc(Br)c3n2)ccc1N(C)CCN(C)C [Example C001, N-(5-((8-bromoquinazolin-2-yl)amino)-2-((2-(dimethylamino)ethyl)(methyl)amino)phenyl) acrylamide]"
–,< 50,–,< 50,–,< 50,–,–,C=CC(=O)N1CCC(n2cnc3cnc(Nc4ccc(N5CCN(CCO)CC5)c(F)c4F)nc32)C1 (stereo not shown) [Example A022]
< 50,< 50,< 50,< 50,> 50,> 50,–,100 to 500,"C=CC(=O)Nc1cc(Nc2ncc3cccc(-c4cccnc4)c3n2)ccc1N(C)CCN(C)C [Example C010, N-(2-((2-(dimethylamino)ethyl)(methyl)amino)-5-((8-(pyridin-3-yl)quinazolin-2-yl)amino)phenyl)acrylamide]"
< 50,< 50,> 50,< 50,–,> 50,–,100 to 500,"C=CC(=O)Nc1cc(Nc2ncc3cccc(-c4cccc(Cl)c4)c3n2)ccc1OC1CCN(C)CC1 [Example C013, N-(5-((8-(3-chlorophenyl)quinazolin-2-yl)amino)-2-((1-methylpiperidin-4-yl)oxy)phenyl)acrylamide]"
< 50,< 50,< 50,< 50,–,< 50,–,> 500,"C=CC(=O)Nc1cc(Nc2ncc3cccc(-c4cccc(Cl)c4)c3n2)ccc1OCCOC [Example C015, N-(5-((8-(3-chlorophenyl)quinazolin-2-yl)amino)-2-(2-methoxyethoxy)phenyl)acrylamide]"
